Laboratory results published in publication PMC11311998, “AR71, Histamine H3 Receptor Ligand—In Vitro and In Vivo Evaluation (Anti-Inflammatory Activity, Metabolic Stability, Toxicity, and Analgesic Action)” (International Journal of Molecular Sciences, 2024).

Tests used:
[1] = target: T1, hH3R (Homo sapiens, UniProt Q9Y5N1); assay: cAMP accumulation assay in HEK 293 cells stably expressing the hH3R; format: cell-based
T1 construct: expressed in transfected cells; host or cells: HEK 293 cells stably expressing hH3R, provided by Dr Thierry Calmels, Bioprojet-Biotech (France)
T1 sequence (Q9Y5N1 whole entry): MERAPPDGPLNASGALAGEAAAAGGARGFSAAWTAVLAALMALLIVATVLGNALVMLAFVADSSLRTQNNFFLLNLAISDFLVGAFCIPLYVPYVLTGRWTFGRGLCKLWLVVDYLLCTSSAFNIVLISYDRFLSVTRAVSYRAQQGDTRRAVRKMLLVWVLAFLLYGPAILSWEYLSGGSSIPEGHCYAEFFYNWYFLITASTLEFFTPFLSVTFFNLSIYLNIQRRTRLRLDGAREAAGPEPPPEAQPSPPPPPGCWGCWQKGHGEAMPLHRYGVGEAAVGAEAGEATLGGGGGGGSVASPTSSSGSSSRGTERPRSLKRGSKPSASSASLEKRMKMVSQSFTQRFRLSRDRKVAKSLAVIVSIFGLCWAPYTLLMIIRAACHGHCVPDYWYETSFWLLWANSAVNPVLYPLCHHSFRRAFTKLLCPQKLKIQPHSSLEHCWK
Method: The intrinsic activity of AR71 was evaluated in a 3′,5′-cyclic adenosine monophosphate (cAMP) accumulation assay in human embryonic kidney (HEK) 293 cells, stably expressing the hH3R [42].
The intrinsic activity of AR71 was evaluated in a 3′,5′-cyclic adenosine monophosphate (cAMP) accumulation assay in human embryonic kidney (HEK) 293 cells, stably expressing the hH3R [42], using the LANCE Ultra cAMP kit (Perkin Elmer, Waltham, MA, USA). The applied method was intended to measure the levels of cAMP generated because of changes in adenylyl cyclase activity mediated by GPCRs. The assay is based on the competition between the europium (Eu) chelate-labelled cAMP tracer and sample cAMP for binding sites on cAMP-specific monoclonal antibodies labelled with the ULight dye. The effect of AR71 (concentrations: 10^−10–10^−5 M) on reversing the inhibition of cAMP production by (R)-(-)-α-methyl histamine (30 nM) in forskolin-stimulated (10 μM) cells was evaluated. The experiment was conducted according to the principles described earlier. Experiments were performed three times in triplicates, and IC50 values were determined using GraphPad Prism 8.4.3 software.
Figure S1. Forskolin-stimulated cAMP accumulation studies in HEK 293 cells expressing the human histamine H3
receptor, co-treated with (R)(-)-α-Methylhistamine […] and AR71 (30 nM). […]

[2] = tested on: SH-SY5Y cells; assay: DNA content / cell cycle (2N/4N DNA ratio), image cytometry; format: cell-based, human
Method: To evaluate the growth dynamics of SH-SY5Y cells in the presence of AR71, neuroblastoma cells were treated with increasing concentrations (0.39–25 µM) of the compound tested for 24 or 72 h. Using image cytometry, we calculated the DNA content index as a 2N/4N DNA ratio to analyse the cell cycle distribution after 24 and 72 h of incubation with AR71.
SH-SY5Y cells were initially seeded in 96-well plates at a density of 5000 cells per well in 120 μL of medium. After 24 h, the cells were exposed to different concentrations of AR71 for either 24 or 72 h. Following a wash with PBS, the cells were fixed with 4% formaldehyde for 20 min and then stained with 1 µg/mL of Hoechst 33342 for 30 min at room temperature. Subsequently, images of 16 fields per well were captured using the ArrayScan VTI HCS Reader from Thermo Fisher Scientific, Inc. (Thermo Fisher Scientific, Waltham, MA, USA), which was equipped with a 5× objective. The cell number was calculated as the sum of the Hoechst-33342-stained cell nuclei using Cell Cycle Bioapplication V3 software and expressed as a per cent of control. The remaining adherent cells in culture wells reflected the cytotoxic potential of the tested compound. In the next step, a series of detailed images were acquired using the ArrayScan VTI HCS Reader equipped with a 10× objective to collect at least 500 nuclei/cells per replicate. The DNA cell content of single cells was analysed based on Hoechst-33342 fluorescence intensity of their nuclei using Cell Cycle Bioapplication V3 software and presented as the DNA 2N/4N ratio. All experiments were performed three times, each in four replicates. IC50 values were calculated with a non-linear fit to a sigmoidal dose–response curve (log compound vs. normalised response) using GraphPad Prism 6.07. The results are presented as mean ± SEM from at least three independent experiments. Statistical significance was evaluated using one-way ANOVA followed by Dunnett’s test. * p < 0.05, ** p < 0.01, and *** p < 0.001 indicate significant differences compared with the control counterparts.

[3] = tested on: SH-SY5Y cells; assay: mitochondrial membrane potential (JC-10); format: cell-based, human; details: 0.78 μM
Method: Neurotoxin-like rotenone induces oxidative stress inside cells that might influence mitochondrial membrane potential (MMP). Maintaining unaffected MMP is essential for neuroprotection. In our study, we tested the effect of AR71 on MMP in the presence and absence of rotenone.
Next, the effect of AR71 (0.78 μM) when co-treated with rotenone was tested; 1 μM carbonyl cyanide m-chlorophenylhydrazone (CCCP) was used as a positive control.
The MMP was measured by a commercially available kit (Sigma Aldrich, MAK159, for live cells) that utilises a cationic, lipophilic dye JC-10. It allows for ratiometric analysis of mitochondrial membrane potential, where a shift from orange (λEX/λEM: 540 nm/590 nm) to green fluorescence (λEX/λEM: 490 nm/525 nm) is indicative of compromised mitochondria. For this assay, the SH-SY5Y cells (1 × 10^4 cells/well) were seeded in a black-sided clear bottom 96-well plate (Thermo Scientific Nunclon^TM Delta Surface no. 137101, Denmark) in a complete culture medium. First, to choose the optimal concentration of rotenone in this assay, a dose–response effect of rotenone (0.05, 0.5, 5, 50 μM) was studied. Next, the cells were pre-treated with AR71 (0.78 μM) for 1 h before rotenone stimulation (50 μM) for another 3 h. […] The positive control was carbonyl cyanide m-chlorophenylhydrazone (CCCP; 1 μM)—uncoupling agent on the proton gradient. After incubation, 50 μL/well of the JC-10 dye loading solution was added to each well with cells. The plate was incubated for 45 min in the incubator. Then, 50 μL/well of Assay Buffer B was added to each well, and the fluorescence was monitored immediately. The red/green fluorescence intensity ratio was used to calculate the results.

## COc1cc(/C=C/C(=O)c2ccc(OCCCN3CCCCC3)cc2)cc(OC)c1OC [AR71, (E)-3-(3,4,5-trimethoxyphenyl)-1-(4-(3-(piperidin-1-yl)propoxy)phenyl)prop-2-en-1-one]
[1]; counteracts inhibition of cAMP production by (R)-(-)-α-methyl histamine in forskolin-stimulated cells
  intrinsic activity profile at H3R: H3R antagonist/inverse agonist
[1]; reversal of inhibition of cAMP production by (R)-(-)-α-methyl histamine (30 nM) in forskolin-stimulated (10 μM) cells
  IC50: 83.5 ± 11.9 nM
[2]; 3.125–25 µM, 24 and 72 h
  effect on cell cycle: cell cycle arrest at the G2/M phase (4N)
[2]; 24 h incubation
  IC50 for 2N/4N DNA ratio: 18.8 µM
[2]; 72 h incubation
  IC50 for 2N/4N DNA ratio: 4.54 µM
[3]
  effect on MMP of compound alone: did not affect mitochondrial membrane potential
[3]; 1 h pre-treatment, then rotenone 50 μM for 3 h
  minimisation of loss of MMP compared with rotenone-treated cells: 20%
